These results are taken from patent US20130045931A1 (priority 2010, published 2013).

The test system of assay [1] is Gram-positive bacteria. The conditions noted are these: some Gram-positive bacteria; cited from earlier work.
The test system of assay [2] is Gram-negative bacteria. To be noted: cited from earlier work.
Assay [3] relates to Staphylococcus aureus (ATCC 12600). Briefly: Antibacterial test, clinically relevant strains (Sahly et al. 2003).
The subject of assay [4] is PAXF1657L (pancreatic tumor). Nature of the assay: Antiproliferative activity, propidium iodide fluorescence assay (Dengler et al. 1995). Type of assay: cell-based, human.
In assay [5] the test system is Bacillus subtilis (DSM 347). Briefly: Antibacterial growth inhibition (Lang et al. 2007).
The subject of assay [6] is liver tumor cell line HepG2. Briefly: CellTiter-Blue cell viability assay. The format is cell-based, human. The source says: (§1) To determine the proliferation and cytotoxicity in respect of the liver tumor cell line HepG2 and the intestinal tumor cell line HT29, the effect on the metabolic activity of the cells was studied by means of the CellTiter-Blue® cell viability assay as described by O'Brien et al. (2000 Investigation of the alamar blue (resazurin) fluorescent dye for the assessment of mammalian cell cytotoxicity. European Journal of Biochemistry 267: 5421-6).
For orientation: The colour change of resazurin is a common sign of viable cells or microbes.

Assay [7] has as its system intestinal tumor cell line HT29. Nature of the assay: CellTiter-Blue cell viability assay. The format is cell-based, human.
Description: as §1

Assay [8] relates to Staphylococcus lentus (DSM 6672). Briefly: Antibacterial growth inhibition (Lang et al. 2007).
Assay [9] deals with Staphylococcus aureus (ATCC 33593, methicillin-resistant). Nature of the assay: Antibacterial test, clinically relevant strains (Sahly et al. 2003).
The test system of assay [10] is Pseudomonas aeruginosa (ATCC 10145). The description is as above. The conditions noted are these: biofilm former.
The test system of assay [11] is GXF251L (gastric tumor). Nature of the assay: Antiproliferative activity, propidium iodide fluorescence assay (Dengler et al. 1995). The format is cell-based, human.
Assay [12] relates to Staphylococcus epidermidis (Isolate, biofilm former). Briefly: Antibacterial test, clinically relevant strains (Sahly et al. 2003).
Assay [13] concerns LXF529L (lung tumor). Nature of the assay: Antiproliferative activity, propidium iodide fluorescence assay (Dengler et al. 1995). The format is cell-based, human.
The test system of assay [14] is Propionibacterium acnes (DSM 1897). Nature of the assay: Antibacterial activity against causative agent of acne vulgaris. The format is cell-based.
Assay [15] has as its system MAXF401NL (breast cancer). Briefly: Antiproliferative activity, propidium iodide fluorescence assay (Dengler et al. 1995). Type of assay: cell-based, human.
The subject of assay [16] is Phytophthora infestans. Type of assay: cell-based. The conditions noted are these: Phytophthora infestans (Isolate), 48 hours at 20° C. in the dark.
The test system of assay [17] is Xanthomonas campestris (DSM 2405). The format is cell-based.

`Cc1cc2cc(O)c3c(c2c(O[C@@H]2C[C@H](N(C)C)[C@@H](O)[C@@H](C)O2)c1[C@@H]1C[C@H](N(C)C)[C@@H](O)[C@H](C)O1)C(=O)c1cccc(O)c1C3=O` [benzanthrin A]: the “activity against Gram-positive bacteria” value in assay [1] is recorded as “active against some Gram-positive bacteria”. Besides, the “activity against Gram-negative bacteria” value in [2] is given as “not against Gram-negative bacteria”.
Consider `Cc1cc2cc(O)c3c(c2c(O[C@@H]2C[C@H](N(C)C)[C@H](O)[C@@H](C)O2)c1[C@@H]1C[C@H](N(C)C)[C@@H](O)[C@H](C)O1)C(=O)c1cccc(O)c1C3=O` [benzanthrin B], for which the “activity against Gram-positive bacteria” value in assay [1] is reported as “active against some Gram-positive bacteria”. The “activity against Gram-negative bacteria” value in [2] is recorded as “not against Gram-negative bacteria”.
As to mayamycin, the IC50 in assay [3] turned out to be 2500 nM; in assay [4], 150 nM; in [5] it was 8 µM; in assay [6] it was 200 nM; in assay [7], 300 nM; in assay [8], 8 µM. Further, the IC50 in assay [9] was 1250 nM; in assay [10], 2500 nM; in [11] it was 200 nM; in assay [12] it was 310 nM; in [13] it was 160 nM; in assay [14], 31.2 µM. Besides, the values for the IC50 in assay [15], in assay [16] and in [17] were 290 nM, 15.2 µM and 30 µM, respectively.

By IC50 is commonly meant the concentration at which inhibition is half-maximal. A higher IC50 goes with a need for much substance.
